According to US20070141618A1, “GENES EXPRESSED IN BREAST CANCER AS PROGNOSTIC AND THERAPEUTIC TARGETS” (priority 2001, published 2007):

Key:
TFF1 = conditions: reportedly; Prud'homme et al. 1985; cited from earlier work
[1] = test system: advanced ER-positive breast cancer; conditions: patients with advanced ER-positive breast cancer; Clark et al. 1988; cited from earlier work
[2] = test system: primary invasive breast cancer; assay: Clinical tumor response (WHO criteria) in randomized Phase III neoadjuvant trial of letrozole versus tamoxifen; format: in vivo, human (postmenopausal women); conditions: clinical outcome of patients with profiled biopsies; clinical assessment by palpation at 4 months
Excerpt: Definitions of Objective Response Used in the Letrozole (FEMARA™) vs. Tamoxifen Comparison Study
1. Complete Response (CR): The disappearance of all known disease, determined by 2 observations not less than 4 weeks apart.
2. Partial Response (PR): A 50% or more decrease in total tumor size of the lesions which have been measured to determine the effect of therapy by 2 observations not less than 4 weeks apart. In addition there can be no appearance of new lesions or progression of any lesion.
4. Progressive Disease (PD): A 25% or more increase in the size of one or more measurable lesions, or the appearance of new lesions.
Clinical Response Assessment
The primary efficacy variable was tumor response, assessed by clinical examination using World Health Organization (WHO) criteria (see, WHO Handbook for Reporting Results of Cancer Treatment). It was defined as the percentage of patients in each treatment group with a CR or PR as determined clinically in the breast by palpation at 4 months. Possible responses were CR, PR, NC, PD or not assessable/not evaluable (NA/NE). Palpable ipsilateral axillary lymph nodal involvement downgraded a clinical CR in tumor. Other factors were also considered such the percentage of patients who underwent breast-conserving surgery (quadrantectomy/lumpectomy) instead of mastectomy. Patients who became inoperable, or who remained inoperable at 4 months, were counted as treatment failures.
Twenty-one RNA samples were extracted from 14-gauge needle core biopsies collected before initiation of neoadjuvant endocrine therapy from patients enrolled in a randomized Phase III trial of letrozole (FEMARA™, Novartis Pharma, Basal Switzerland) versus tamoxifen for postmenopausal women with primary invasive breast cancer ineligible for breast conserving surgery. RNA was extracted from an additional 30 primary breast adenocarcinomas collected in Sweden, one additional ESR1+breast tumor surgical biopsy, two HUVEC samples, two samples from glioblastoma cell line U373-MG and one MCF7 sample using Trizol (Life Technologies, Gaithersburg, Md.). The clinical samples were collected after informed consent had been obtained according to protocols approved by local ethics committees. RNA was purchased for two samples, an infiltrating Stage III duct carcinoma (Ambion, Austin, Tex.) and a pool of two normal breast tissues (Clontech, Palo Alto, Calif.). The total number of samples prepared was 59 including 53 breast cancer biopsies and one pooled normal breast sample. Total RNA was purified using QIAGEN RNEASY™ columns (Qiagen, Valencia, Calif.), processed and hybridized to the HUGENE™ FL 6800 Array (Affymetrix, Santa Clara, Calif.), as described by Lockhart et al., Nat. Biotechnol., Vol. 14, pp. 1675-1680 (1996).
In another aspect of the invention 136 breast biopsies from 53 patients were obtained. RNA was extracted from 116 biopsies. Expression profiles were generated for 43 biopsies from 35 patients. Predictive markers of endocrine therapy responsiveness in breast tumors were identified. The breakdown of the profiled biopsies from the pre-letrozole (FEMARA™) treatments and the patient's clinical outcome was as follows: four patients with CR, nine patients with PR, four patients with NC and four patients with PD.
For the group treated with tamoxifen there were no patients in the CR category, 10 patients with PR, seven patients with NC and four patients with PD.
Patients with CR or PR were classified as “Responders” and those with NC or PD were classified as “Non-responders”. The expression of 8,000 genes was compared between these two groups in the pre-treatment biopsies from patients given Letrozole (FEMARA™). Numerical values (AvDiff) represent the expression level for that gene in a particular sample. For computational reasons the average of the AvDiff values was calculated for each gene on the array for all of the responders. These averages were then compared to each gene for each individual sample in the Non-responders group. […]

Row | Structure (SMILES) | effect on estradiol induction of TFF1 (TFF1) | response rate [1] | patients with Complete Response (CR) [2] | patients with No Change (NC) [2] | patients with Partial Response (PR) [2] | patients with Progressive Disease (PD) [2] | effect on TFF1 mRNA levels (TFF1)
1 | CC/C(=C(\c1ccccc1)c1ccc(OCCN(C)C)cc1)c1ccccc1 [tamoxifen] | inhibited | around 50% | no | seven | 10 patients | four | –
2 | N#Cc1ccc(C(c2ccc(C#N)cc2)n2cncn2)cc1 [letrozole] | – | – | four | four | nine | four | –
3 | C[C@]12CCC(=O)C[C@@H]1CC[C@@H]1[C@@H]2CC[C@]2(C)[C@@H](O)CC[C@@H]12 [dihydrotestosterone] | – | – | – | – | – | – | not
4 | CC(=O)[C@H]1CC[C@H]2[C@@H]3CCC4=CC(=O)CC[C@]4(C)[C@H]3CC[C@]12C [progesterone] | – | – | – | – | – | – | not
